Literature values, collected in US12502395B2, “Progestin/testosterone transdermal gel” (The Population Council, Inc., priority 2022, dated 2025).

Legend:
[1] = system: androgenic, estrogenic, or glucocorticoid actions; conditions: at up to x2000 the therapeutic levels
[2] = most common adverse event; 100 mg/day of T
pregnancy = conditions: weekly intramuscular injection of 200 mg/week for 12 months

## C=C1C[C@H]2[C@@H]3CCC4=CC(=O)CC[C@@H]4[C@H]3CC[C@]2(C)[C@@]1(OC(C)=O)C(C)=O [NES, 16-methylene-17α-acetoxy-19-norpregn-4-ene-3,20-dione]
[1]
  Androgenic, estrogenic, or glucocorticoid actions: does not carry androgenic, estrogenic, or glucocorticoid actions

## C[C@]12CC[C@H]3[C@@H](CCC4=CC(=O)CC[C@@]43C)[C@@H]1CC[C@@H]2O [T, Testosterone]
[2]
  Acne, % of subjects: 21%

## CCCCCCC(=O)O[C@H]1CC[C@H]2[C@@H]3CCC4=CC(=O)CC[C@]4(C)[C@H]3CC[C@]12C [testosterone enanthate]
pregnancy
  Pregnancy rate: 0.8 pregnancy per 100 person-years of exposure
